Values of other authors in PMC13379419, “Integrating high-fidelity hiPSC-cardiomyocytes with AI-driven modeling for enhanced proarrhythmic risk assessment” (Archives of Toxicology, 2026).

Parameters: method as in none printed
Conditions: clinical maximum plasma concentration

**Q.** With C=C[C@H]1C[N@@]2CC[C@H]1C[C@@H]2[C@@H](O)c1ccnc2ccc(OC)cc12 [Quinidine] as the molecule, how does the Cmax read?
**A.** 3000 nM
